What was measured:
[1] = test system: human T cells; experiment: Differentiation of peripheral blood T cells into Th1 / Th2 cells (IL-12, anti-CD3/CD28, flow cytometry); format: cell-based; details: FIG. 2; for concentration exhibiting the effect of inhibiting differentiation of T cells into Th1 cells / concentration exhibiting the effect of promoting differentiation of T cells into Th2 cells: human peripheral blood cells, IL-12 100 ng/mL, four days; for concentration exhibiting the effect of inhibiting differentiation of T cells into Th1 cells: CD4-positive IFN-γ-positive cells; for concentration exhibiting the effect of promoting differentiation of T cells into Th2 cells: CD4-positive IL-4-positive cells
Procedure: Peripheral blood (10 mL) was collected from six healthy adults in heparin, and […] were isolated through the Ficol-Hypaque method (i.e., a customary method). The thus-isolated cells were diluted to 1×10^6/mL and then inoculated into a 24-well culture plate coated with CD3 and CD28 antibodies (Falcon), followed by culturing for four days in the presence of IL-12 (100 ng/mL), to thereby induce differentiation of T cells into Th1 cells. Atorvastatin or pitavastatin (0.01 to 10 μM) was added at the time of initiation of culturing, and the effect of each drug on differentiation of T cells into Th1 cells was examined. After completion of culturing, cells were washed thrice with PBS, and cytokines (IFN-γ and IL-4) in the cells and CD4 on the surfaces of the cells were stained in a conventional manner. The ratio of Th1 (CD4-positive, IFN-γ-positive cells) or Th2 (CD4-positive, IL-4-positive cells) to all the CD4-positive T cells was determined through flow cytometry.
Specifically, lymphocytes were stimulated with anti-CD3 antibody and anti-CD28 antibody, and the amounts of INF-γ (Th1 cytokine) and IL-4 (Th2 cytokine) in the cells were determined through flow cytometry, to thereby compare pitavastatin with atorvastatin in terms of the effect of inhibiting differentiation of peripheral blood T cells into Th1 cells, and the effect of promoting differentiation of peripheral blood T cells into Th2 cells.

[2] = test system: Th1 cells derived from spleen cells of MOG-immunized mice; experiment: Inhibition of activation of Th1 cells: IFN-γ production by MOG-stimulated spleen cells of EAE mice (ELISA); format: cell-based, C57BL/6 mice; details: FIG. 1; for concentration that significantly reduced the amount of IFN-γ produced by Th1 cells (inhibited activation of Th1 cells): spleen cells of MOG-immunized EAE mice, day 14, stimulated with MOG, IFN-γ in supernatant by ELISA
Procedure: Five C57BL/6 mice were immunized with myelin oligodendrocyte glycoprotein (MOG), and mice with experimental autoimmune encephalomyelitis ([…] model of multiple sclerosis) were prepared in a conventional manner. On day 14 after immunization, spleen cells were collected from each mouse and cultured in a 24-well culture plate coated with CD3 and CD28 antibodies, and then stimulated with MOG in the presence of pitavastatin or atorvastatin, to thereby activate Th1 cells. The Th1 cytokine (IFN-γ) concentration of the supernatant of the resultant cell culture was determined through ELISA.

CC(C)c1c(C(=O)Nc2ccccc2)c(-c2ccccc2)c(-c2ccc(F)cc2)n1CC[C@@H](O)C[C@@H](O)CC(=O)O [atorvastatin]
concentration exhibiting the effect of inhibiting differentiation of T cells into Th1 cells [1]: at least 10 μM | concentration exhibiting the effect of promoting differentiation of T cells into Th2 cells [1]: at least 10 μM | concentration that significantly reduced the amount of IFN-γ produced by Th1 cells (inhibited activation of Th1 cells) [2]: 25 µM

O=C(O)C[C@H](O)C[C@H](O)/C=C/c1c(C2CC2)nc2ccccc2c1-c1ccc(F)cc1 [pitavastatin, (3R,5S,6E)-7-[2-cyclopropyl-4-(4-fluorophenyl)-3-quinolyl]-3,5-dihydroxy-6-heptenoic acid]
concentration exhibiting the effect of inhibiting differentiation of T cells into Th1 cells [1]: 1 µM | concentration exhibiting the effect of promoting differentiation of T cells into Th2 cells [1]: 1 µM | Th1/Th2 ratio improving effect relative to atorvastatin ([1]; versus atorvastatin): 10 fold | effect of promoting differentiation of T cells into Th2 cells relative to atorvastatin ([1]; versus atorvastatin): 10 fold | concentration that significantly reduced the amount of IFN-γ produced by Th1 cells (inhibited activation of Th1 cells) [2]: ≥ 10 µM | effect of inhibiting activation of Th1 cells relative to atorvastatin ([2]; versus atorvastatin, from amount of IFN-γ produced): 2.5 fold
